Consider ten molecules from ChEMBL document CHEMBL1201862, “PubChem BioAssay data set” (2004).

Among the test systems are SF-268; LOX IMVI; HCT-116; MDA-MB-435; BT-549; SNB-75; HCC 2998; NCI/ADR-RES; NCI-H460; PC-3; SNB-19; COLO 205; OVCAR-4; SK-MEL-28; NCI-H226; K562; HCT-15; M14; RXF 393; MOLT-4.
Assay in all cases: NCI tumour cell line growth inhibition, 48 h

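Step 1: Grow cells in 96-well plates. Step 2: Expose to compound for 48 hours at 5 concentrations. Step 3: Interpolate endpoints linearly; if unreached, use highest concentration. Here, GI50 denotes the concentration required for 50% inhibition of growth.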 Activity calls are given as the source filed them. Cut-off read from the data, not from the text of the source: active = GI50 up to about 1.1 µM and inactive = higher. Where a SMILES comes first, the peptide text is derived from it. The star is where a group is joined. Boc = CC(C)(C)OC(=O)*; OBn = c1ccc(CO*)cc1 A value given as a limit tells only on which side of the number the result lay.

For the molecule `CC(C)Cn1cnc2c(SCc3ccccn3)nc(N)nc21`, the GI50 was > 100 µM (inactive) in the experiment with SF-268; > 100 µM (inactive) with LOX IMVI; > 100 µM (inactive) in the experiment with HCT-116; > 100 µM (inactive) with MDA-MB-435; > 100 µM (inactive) in the experiment on BT-549; 51.9 µM (inactive) with SNB-75. Also, the GI50 in the experiment on HCC 2998, in the experiment with NCI/ADR-RES, in the experiment on NCI-H460, in the experiment on PC-3, with SNB-19 and in the experiment on COLO 205 was > 100 µM (inactive) each time. The GI50 was > 100 µM (inactive) with OVCAR-4; > 100 µM (inactive) in the experiment with SK-MEL-28; > 100 µM (inactive) with NCI-H226; > 100 µM (inactive) in the experiment with K562; greater than 100 µM in the experiment on HCT-15; > 100 µM (inactive) with M14. Also, the GI50 in the experiment on RXF 393 was > 100 µM (inactive).
`CCC(=O)NCC1CCCN2CCCCC12` (stereo unspecified): the GI50 with SF-268, in the experiment with LOX IMVI, in the experiment on MOLT-4, with HCT-116, with MDA-MB-435 and in the experiment on BT-549 was > 100 µM (inactive) in each case. Further, the GI50 in the experiment on SNB-75, in the experiment with HCC 2998, in the experiment on NCI/ADR-RES, in the experiment with NCI-H460, in the experiment with PC-3 and with SNB-19 was > 100 µM (inactive) each time. The GI50 is > 100 µM (inactive) in the experiment on COLO 205; > 100 µM (inactive) in the experiment with OVCAR-4; > 100 µM (inactive) in the experiment on SK-MEL-28; > 100 µM (inactive) with NCI-H226; > 100 µM (inactive) in the experiment with K562; greater than 100 µM with HCT-15. The GI50 in the experiment on RXF 393 was > 100 µM (inactive).
`O=[N+]([O-])c1cc(-[n+]2cc([O-])on2)ccc1Cl`: the GI50 in the experiment on SF-268 is 22.2 µM (inactive); in the experiment with LOX IMVI, 17.9 µM (inactive); in the experiment on HCT-116, 16.1 µM (inactive); in the experiment with MDA-MB-435 it was 27.6 µM (inactive); in the experiment on BT-549 it was 19.9 µM (inactive); with SNB-75, 25.8 µM (inactive). The GI50 is 18.1 µM (inactive) with HCC 2998; 18 µM (inactive) in the experiment on NCI/ADR-RES; 34.2 µM (inactive) with NCI-H460; > 100 µM (inactive) in the experiment on PC-3; 14.2 µM (inactive) in the experiment on SNB-19; 27.7 µM (inactive) in the experiment with COLO 205. The GI50 is 14 µM (inactive) in the experiment on OVCAR-4; 16.1 µM (inactive) in the experiment with SK-MEL-28; 83.8 µM (inactive) in the experiment with NCI-H226; 42.4 µM (inactive) in the experiment on K562; 20.7 µM in the experiment on HCT-15; 15.5 µM (inactive) with M14. For the same molecule, in the experiment on RXF 393, the GI50 was 14.8 µM (inactive).
Turning to `CC(NC(=O)C(Cc1ccccc1)NC(=O)C(Cc1ccccc1)NC(=O)OC(C)(C)C)C(=O)OCc1ccccc1` (stereo not drawn) (Boc-Phe-Phe-Ala-OBn; configuration not given here), the GI50 in the experiment with SF-268 is > 100 µM (inactive); in the experiment with LOX IMVI, > 100 µM (inactive); with MOLT-4 it was 54.7 µM (inactive); in the experiment on HCT-116, 76.9 µM (inactive); with MDA-MB-435 it was > 100 µM (inactive); with BT-549, > 100 µM (inactive). Moreover, the GI50 in the experiment on SNB-75 is 50.8 µM (inactive); in the experiment on HCC 2998, 54.2 µM (inactive); in the experiment with NCI/ADR-RES, > 100 µM (inactive); with NCI-H460, > 100 µM (inactive); in the experiment with PC-3 it was 68.7 µM (inactive); in the experiment on COLO 205, 65.3 µM (inactive). In addition, the GI50 in the experiment on NCI-H226 is 6.05 µM (inactive); in the experiment on K562 it was 64.3 µM (inactive); with M14, 48.4 µM (inactive); in the experiment on RXF 393, 30.7 µM (inactive).
With `CC12CCC(=O)C=C1CCC1C2C(O)CC2(C)C(c3csc(N)n3)CCC12.O=S(=O)(O)c1ccc(Br)cc1` (stereo unspecified), the GI50 in the experiment with SF-268, with LOX IMVI, in the experiment on MOLT-4, with HCT-116, with MDA-MB-435 and with BT-549 was > 100 µM (inactive) in each case. Also, the GI50 with SNB-75, with HCC 2998, in the experiment on NCI/ADR-RES, with PC-3, in the experiment with SNB-19 and in the experiment with COLO 205 was > 100 µM (inactive) in each case. Also, the GI50 was > 100 µM (inactive) with OVCAR-4; > 100 µM (inactive) in the experiment with SK-MEL-28; > 100 µM (inactive) in the experiment on NCI-H226; > 100 µM (inactive) in the experiment on K562; greater than 100 µM in the experiment with HCT-15; > 100 µM (inactive) in the experiment with M14. In the experiment with RXF 393, the GI50 was > 100 µM (inactive).
`COc1cc(C(c2ccc3c(c2)OCO3)C2SCCCS2)cc(OC)c1OC` (stereo unspecified): the GI50 in the experiment with SF-268 was 6.21 µM (inactive); in the experiment with MOLT-4 it was 2.87 µM (inactive); with HCT-116 it was 2.59 µM (inactive); with MDA-MB-435, 0.661 µM (active); in the experiment on BT-549, 8.79 µM (inactive); in the experiment on SNB-75 it was 2.21 µM (inactive). Moreover, the GI50 in the experiment with HCC 2998 was 2.99 µM (inactive); in the experiment on NCI/ADR-RES, 2.15 µM (inactive); with NCI-H460 it was 1.58 µM (inactive); in the experiment on PC-3 it was 3.6 µM (inactive); in the experiment on SNB-19, 1.86 µM (inactive); in the experiment with COLO 205, 1.63 µM (inactive). The GI50 with OVCAR-4 was 6.65 µM (inactive); in the experiment with SK-MEL-28 it was 4.91 µM (inactive); in the experiment with NCI-H226, 2.7 µM (inactive); with K562 it was 1.85 µM (inactive); in the experiment on HCT-15 it was 2.02 µM; with M14, 3.6 µM (inactive). Further, the GI50 with RXF 393 is 1.35 µM (inactive).
With `COc1ccc(CNc2nc3ccccc3nc2C(=O)O)cc1`, the GI50 in the experiment with SF-268 was > 100 µM (inactive); with LOX IMVI it was 45.4 µM (inactive); with MOLT-4, > 10 µM (inactive); in the experiment with HCT-116, 51.6 µM (inactive); with MDA-MB-435, > 100 µM (inactive); in the experiment on BT-549, > 100 µM (inactive). Besides, the GI50 in the experiment on SNB-75 was 93.8 µM (inactive); in the experiment on HCC 2998 it was > 100 µM (inactive); in the experiment with NCI/ADR-RES, 38.9 µM (inactive); with NCI-H460, 55.5 µM (inactive); in the experiment on PC-3, > 100 µM (inactive); in the experiment on SNB-19, > 100 µM (inactive). For the same molecule, the GI50 in the experiment on COLO 205 was 71.6 µM (inactive); in the experiment on SK-MEL-28, > 100 µM (inactive); with NCI-H226, > 100 µM (inactive); with K562 it was 93.3 µM (inactive); in the experiment with HCT-15, 23.1 µM; in the experiment with M14, > 100 µM (inactive). Besides, the GI50 in the experiment with RXF 393 was > 100 µM (inactive).
`CC1(C)C(=O)/C(=C/c2ccccc2)C(C)(C)C1(C)C`: the GI50 in the experiment with LOX IMVI was 35.4 µM (inactive); with MOLT-4, 56.2 µM (inactive); in the experiment with HCT-116, 38.5 µM (inactive); in the experiment on MDA-MB-435, 29.4 µM (inactive); with BT-549, 36.1 µM (inactive); in the experiment on SNB-75, 46.8 µM (inactive). In addition, the GI50 with HCC 2998 was > 91.4 µM (inactive); with NCI/ADR-RES, > 90.6 µM (inactive); in the experiment on NCI-H460, 62.7 µM (inactive); with PC-3, 53.7 µM (inactive); with SNB-19 it was > 100 µM (inactive); with COLO 205, > 100 µM (inactive). In addition, the GI50 is > 75.3 µM (inactive) in the experiment with OVCAR-4; > 100 µM (inactive) with SK-MEL-28; > 100 µM (inactive) with NCI-H226; 35.2 µM (inactive) in the experiment with K562; 54.1 µM in the experiment on HCT-15; 85.1 µM (inactive) in the experiment with M14. In addition, the GI50 in the experiment on RXF 393 was > 100 µM (inactive).
For `CC(=O)O[C@@]12[C@@H]3O[C@@]4(O)C[C@]5(C)[C@H]6C[C@@](C(C)C)(O[C@H]5c5ccoc5)O[C@H]1[C@]6(C4)O[C@]2(O)C(C)=CC3(C)C`, the GI50 in the experiment on SF-268, with LOX IMVI, in the experiment on MOLT-4, in the experiment with HCT-116, with MDA-MB-435 and in the experiment with BT-549 was > 100 µM (inactive) each time. Also, the GI50 is 75.9 µM (inactive) with SNB-75; > 100 µM (inactive) in the experiment with HCC 2998; > 100 µM (inactive) in the experiment with NCI/ADR-RES; > 100 µM (inactive) in the experiment with PC-3; 63.2 µM (inactive) in the experiment with SNB-19; > 100 µM (inactive) with COLO 205. The GI50 is > 100 µM (inactive) in the experiment on OVCAR-4; > 100 µM (inactive) with SK-MEL-28; > 100 µM (inactive) with NCI-H226; > 100 µM (inactive) in the experiment with K562; greater than 100 µM with HCT-15; > 100 µM (inactive) in the experiment on M14. Also, the GI50 in the experiment on RXF 393 was > 100 µM (inactive).
On to `COc1cc(COC(=O)N2CCC2C(=O)O)c([N+](=O)[O-])cc1OC` (stereo unspecified), for which the GI50 with SF-268, with MOLT-4, with HCT-116, with MDA-MB-435, with BT-549 and in the experiment with SNB-75 was > 100 µM (inactive) in each case. The GI50 in the experiment on HCC 2998, in the experiment on NCI/ADR-RES, in the experiment on NCI-H460, with PC-3, in the experiment with SNB-19 and in the experiment on COLO 205 was > 100 µM (inactive) throughout. The GI50 with SK-MEL-28 was > 100 µM (inactive); with NCI-H226, > 100 µM (inactive); in the experiment on K562, > 100 µM (inactive); in the experiment with HCT-15, greater than 100 µM; in the experiment on M14, > 100 µM (inactive); in the experiment on RXF 393 it was > 100 µM (inactive).
